Data on 29 substances can be found in PMC12057046, “Elucidation of short linear motif-based interactions of the MIT and rhodanese domains of the ubiquitin-specific protease 8” (Biology Direct, 2025).

In one assay the target is T1, USP8 Rhod domain (Homo sapiens, UniProt P40818).
T1 construct: USP8 Rhod (174–317) (UniProt: P40818); GST (cleaved yes); made in house; host or cells: Escherichia coli BL21-Gold (DE3)
T1 sequence (P40818 174-317): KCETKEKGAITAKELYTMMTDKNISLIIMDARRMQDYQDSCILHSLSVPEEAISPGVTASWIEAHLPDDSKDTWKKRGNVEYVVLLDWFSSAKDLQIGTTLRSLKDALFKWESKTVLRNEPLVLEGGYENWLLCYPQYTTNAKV
The experiment in a line: SPOT array of predicted peptides from known interactors, USP8 Rhod domain. To be noted: for Percentage (%) normalized to highest intensity and corrected for background: Rhod-Peptide screening, SPOT array of predicted peptides, KIAA1614 positive control = 100. The format is binding. The text has this:
The results therefore support that the USP8 Rhod domain binds to two distinct types of motifs (Fig. 4A, B). We used the motifs to scan for matching motifs in previously reported interactors using the SLiMSearch algorithm (Supplementary Table S8 A). As there was no clear match for the TET3-type motif except from only one hit, we focused on the KIAA1614-type motif. […] Both TP63 and USP21 are previously reported USP8 substrates, and the interactions may potentially contribute to substrate targeting. […] As the SHANK3 peptides (351-[…]−365 and 392-[…]−406) are closely located in the primary structure of SHANK3, it is tempting to speculate that both motifs contribute to the interactions between the full-length proteins by increasing the local concentration of binding motifs. […] Taken together, we find that the USP8 Rhod domain is a peptide binding domain that can be bound by peptides of two distinct types of motifs, with the Rx[LI]xGxxxPxxL motif and variants thereof being found in known USP8 substrates.
SPOT array alanine scanning of peptides was designed, and cellulose-bound peptides were synthesized using Fluorenylmethyloxycarbonyl (Fmoc) solid phase synthesis with a MultiPep synthesizer (INTAVIS Peptide Services, Tübingen, Germany). The membranes of predicted peptides were purchased by JPT Peptide Technologies (Berlin, Germany). The membranes were incubated with blocking buffer containing 5% skim milk in TBST (50 mM Tris, 150 mM NaCl pH 7.5, 0.05% Tween-20) for two hours at room temperature. The blocked membranes were incubated with GST-tagged proteins (100 µM for MIT domain and 150 µM for the Rhodanese domain) in blocking buffer overnight at 4 °C. After rinsed with TBST the membranes were incubated with HRP-conjugated anti-GST antibody (Cytiva, RPN1236; 1:3000 dilution) in blocking buffer for 1 h at 4 °C and subsequently rinsed with TBST to remove any excess antibody. The ECL reagent (Clarity Max Western ECL substrate, 1705062, BioRad) was used for chemiluminescence read-out with the ChemiDoc Imaging system (BioRad). The images were analysed with Fiji (ImageJ2 version 2.9.0). SLiMSearch4 was used to design the peptide arrays with known interactors predicted to contain the motifs. The background signal intensity was subtracted, and the corrected signal intensities were normalized to the positive control and presented as percentage.

For assay [1], the system named is USP8 MIT domain. The experiment in a line: SPOT array of predicted peptides from known interactors, USP8 MIT domain. The format is binding, human. From the text:
To further assess the SLiM-based interactions of the USP8 MIT domain, we designed a peptide array tiling 24 potential binding sites in previously reported USP8 interactors. We used SLiMSearch to search for peptides that contain shorter or longer matches to the motif (Supplementary Table S4A). […] The DNAJB6_118 - 130 peptide was predicted as a binder based on a partial DFx{2,3}R motif. The DNAJB6-USP8 interaction is supported by previous GST-pulldown experiments and colocalization of the two proteins in male mouse germ cells, and the interaction is thought to be of importance to the protein quality control to yield functional spermatozoa. In the case of the CDH1_863 - 877 peptide it was predicted as USP8 MIT ligand based on the presence of an RFxxL motif. The previous support of the CDH1-USP8 interaction is based on proximity labelling mass spectrometry, and our results thus provide evidence for a binary interaction between the two proteins and define a binding site. To confirm that the motifs used to predict the interactions were of importance for binding we designed an alanine scanning peptide SPOT array analysis of the DNAJB6_118 - 130 and the CDH1_863 - 877 peptides. […] In summary, we find that the USP8 MIT domain binds to a MIM1-like motif that can be expressed by [[…]], as well as degenerate variants thereof. […] The membranes of predicted peptides were purchased by JPT Peptide Technologies (Berlin, Germany). The membranes were incubated with blocking buffer containing 5% skim milk in TBST (50 mM Tris, 150 mM NaCl pH 7.5, 0.05% Tween-20) for two hours at room temperature. The blocked membranes were incubated with GST-tagged proteins (100 μM for MIT domain and 150 μM for the Rhodanese domain) in blocking buffer overnight at 4 °C. After rinsed with TBST the membranes were incubated with HRP-conjugated anti-GST antibody (Cytiva, RPN1236; 1:3000 dilution) in blocking buffer for 1 h at 4 °C and subsequently rinsed with TBST to remove any excess antibody. The ECL reagent (Clarity Max Western ECL substrate, 1705062, BioRad) was used for chemiluminescence read-out with the ChemiDoc Imaging system (BioRad). The images were analysed with Fiji (ImageJ2 version 2.9.0). […] used to design the peptide arrays with known interactors predicted to contain the motifs. The background signal intensity was subtracted, and the corrected signal intensities were normalized to the positive control and presented as percentage.

Assay [2] concerns USP8 MIT domain. The assay can be described thus: Proteomic peptide-phage display (ProP-PD) selection against USP8 MIT domain. It is filed as binding, human. More on the design: Confidence: scale not given here. The method, then: We explored the peptide-binding of the USP8 MIT domain by using the purified GST-tagged MIT domain as bait in proteomic peptide-phage display (ProP-PD) selections and a library designed to display the predicted unstructured regions of the human proteome. The peptide-coding regions of the binding-enriched phage pools were analysed by next-generation sequencing (NGS). After filtering for high confidence ligands, ten ligands remained (Fig. 1B; Supplementary Table S1). None of the ten identified protein-protein interactions had been previously reported, based on comparison with the information available in IntAct, HIPPIE and BioGrid (February 2025). Of the USP8 interacting proteins found, the D site-binding protein (DBP), which is a clock-controlled transcription factor, appears as an interesting ligand as USP8 has been reported to be involved in controlling the circadian rhythm. Also, the CCDC88A-encoded protein Girdin is an interactor of potential biological relevance as it is a scaffolding protein involved in the EGFR pathway which USP8 is known to regulate. At the motif level, there was no shared consensus motif among the ten peptide ligands. However, by manual inspection we noticed that four of the peptides contained a shared [LI]xxR[IY]xxL sequence, which appears to be a variation of the [DE]xxLxxRLxxL[KR] MIM1 motif described in the Eukaryotic Linear Motif resource (ELM) (Fig. 1B). We performed a SPOT array alanine scanning analysis in which peptides are synthesised on a membrane, and where each amino acid position of the peptide is mutated to alanine (or glycine if alanine is in the wild type peptide) to evaluate the effect of the amino acid residues in binding. We tested two peptides containing the apparent MIM1-like motif, one from Girdin (Girdin1192 − 1207) and one from the histone-lysine N-methyltransferase SETD1B (SETD1B492 − 507). […] AlphaFold3 (AF3) modelling of the four peptides with the variant MIM1 motif and the MIT domain docked the peptides with high confidence (ipTM scores: HIVEP1_741 − 756: 0.87, Girdin1192 − 1207: 0.85, MLPH481 − 496: 0.82, SETD1B492 − 507: 0.75) at the expected MIM1 binding pocket (Fig. 1D). […] However, the USP8 MIT selection was dominated (more than 94% of NGS counts) by two peptides that lack an apparent MIM1 motif. The two peptides were from the EF-hand calcium-binding domain-containing protein 12 (EFCAB12_1 − 16: […]) and from DBP (DBP116 − 131: […]) (Fig. 1B). […] In comparison to this, the EFCAB12_1 − 16 peptide shares a potential Dx[YF]xxxH[SG] motif with the DBP116 − 131 (Fig. 1B). […] The AF3 model of DBP116 − 131 peptide supports the interaction of D120 of the DBP116 − 131 peptide with the residues K74 and N71 in the MIT domain (Fig. 1G), emphasizing the significance of the aspartic acid at this position. […] Of them, two peptides (SYNE2_853 − 868 and PKNOX1_56 − 71) where placed in the same binding site as the Girdin and DBP peptides with high confidences by AF3 modelling (ipTM 0.92 and 0.74; Supplementary Fig. S3).
Four rounds of phage selections were carried out using the second generation human disorderome library or the constructed deep mutational scanning library. At least three individual replicates were used for each bait protein. 10 µg of GST-tagged proteins or GST control (diluted in PBS from the stock of proteins kept in the purification elution buffer) were immobilized in 100 µL PBS on a 96-well MaxiSorp (Nunc) plate overnight at 4 °C. The plates were incubated with blocking buffer (with 0.5% BSA in PBS) for 1 h at 4 °C followed by washing with 0.05% Tween 20 in PBS four times. The naïve phage library (10^11 CFU) was diluted in 1/5th volume PEG/NaCl (20% PEG-8000, 0.4 M NaCl) and 1X PBS, incubated on ice for 10 min and centrifuged at 10,000 [drawing 3] g for 10 min. The pellet was resuspended in the volume of PBS (100 µL/ well). […]

Consider AKPPGPGVLMIHPPG, for which the “Percentage (%) normalized to highest intensity and corrected for background” value (shortened to “Percentage (%) normalized”) on USP8 Rhod domain is reported as -1.54%.

With AQPLTPGVLMVQPAA, on USP8 Rhod domain, the “Percentage (%) normalized” value is -0.828%.

For the substance AQPPAPGVLMAQPLT, the “Percentage (%) normalized” value at USP8 Rhod domain was -1.21%.

Turning to AQPPTPGVLMVHPSA, the “Percentage (%) normalized” value on USP8 Rhod domain is reported as -1.3%.

For ASQAVPTFLMATAAA, at USP8 Rhod domain, the “Percentage (%) normalized” value is listed as -0.581%.

Consider CGNQERKLEGSINDI, for which, at USP8 Rhod domain, the “Percentage (%) normalized” value is given as 11%.

Regarding DPSAPPSLLLLLLAQ, the “Percentage (%) normalized” value on USP8 Rhod domain was 0.93%.

For DPVESRGLPGPEDDK, the “Percentage (%) normalized” value on USP8 Rhod domain is listed as -0.521%.

Turning to EINLQRNIAGKVVTP, the “Percentage (%) normalized” value at USP8 Rhod domain is -1.5%.

As to FDQPHPQGLLPCQPQ, the “Percentage (%) normalized” value at USP8 Rhod domain is 4.4%.

For the substance GKPPTPGVLMVHPPP, the “Percentage (%) normalized” value at USP8 Rhod domain is -1.22%.

Consider “GMERVLGGLSSPLRLL [KIAA1614 Positive control]”, for which the “Percentage (%) normalized” value on USP8 Rhod domain is listed as 100%.

GPSTSRILSGWEGPS: the “Percentage (%) normalized” value at USP8 Rhod domain was -0.117%.

GVSCYRGLTGFGSRS: the “Percentage (%) normalized” value at USP8 Rhod domain is 52%.

For the substance HAVSSPDPLLCSDVT, at USP8 Rhod domain, the “Percentage (%) normalized” value is recorded as -0.0499%.

Regarding HEFSSPSHLLRTPSS, the “Percentage (%) normalized” value on USP8 Rhod domain is listed as 45%.

On to HPNTPRGLSGWEGPS, for which the “Percentage (%) normalized” value at USP8 Rhod domain is on record as 2.19%.

With IATYRRLLEGEEHRL, the “Percentage (%) normalized” value at USP8 Rhod domain is 5.44%.

For the substance MAQALPWLLLWMGAG, at USP8 Rhod domain, the “Percentage (%) normalized” value was 1.42%.

As to “MPSGSRLRLVELGLGL [Random KIAA1614 Negative control]”, the “Percentage (%) normalized” value on USP8 Rhod domain is reported as 3.69%.

As to PEKGARSLAGPPPHF, at USP8 Rhod domain, the “Percentage (%) normalized” value is given as -1.37%.

Consider PGPPYPPQLMTPSKL, for which the “Percentage (%) normalized” value on USP8 Rhod domain is recorded as -0.836%.

Regarding PIPSSSPPPLSSPL, the “Percentage (%) normalized” value at USP8 Rhod domain is -1.42%.

In the case of PKPPRPASLLRHAPH, the “Percentage (%) normalized” value on USP8 Rhod domain is given as 5%.

As to PRPTAPKPLLPRREE, on USP8 Rhod domain, the “Percentage (%) normalized” value was 0.0399%.

As to PVYSRPTVLMRAPPA, the “Percentage (%) normalized” value at USP8 Rhod domain is recorded as 4.31%.

On to QPVYSSPRRLNCAE, for which the “Percentage (%) normalized” value at USP8 Rhod domain was 17%.

In the case of “RAB3IP82 − 95: SSPxxL containing peptide from the RAB3A interacting protein (QPVYSSPRRLNCAE)”, in the assay with USP8 Rhod domain (GST-tagged Rhod 150 µM, positive control KIAA1614_568 − 583, array of 42 predicted peptides), the “SPOT intensity in words” value is “Weaker signals”.

“SQKELESYMMRAQQLL [SYNE2_853 − 868, Nesprin-2 peptide]”: the “Percentage (%) normalized” value in the assay with USP8 MIT domain [1] (SPOT array, GST-tagged MIT 100 µM, overnight 4 °C, chemiluminescence, highest intensity = DNAJB6) is on record as -4%. Further, the “Percentage (%)” value with USP8 MIT domain [1] (Supplementary Fig. 4B, normalized to the highest intensity and corrected for background) was -4%. The “NGS counts (%)” value in the assay with USP8 MIT domain [2] (ProP-PD, human disorderome library, GST-tagged MIT bait, four rounds of selection, percent of NGS counts associated with each peptide, Fig. 1B) is 0.43%. This substance yielded a max_counts in the assay with USP8 MIT domain [2] (Total NGS counts) of 21. Besides, the Confidence in the assay on USP8 MIT domain [2] (calculated based on four metrics: overlapping peptides, replicated peptides, motif match, peptide counts) is listed as 2. For the same substance, the Counts with USP8 MIT domain [2] (fraction of NGS counts for a selection) turned out to be 0.0007925. In the assay with USP8 MIT domain [2] (number of baits selections where the peptide has been observed, calculated on the domain level), the Promiscuity was 1. This substance also yielded a Replicates in the assay with USP8 MIT domain [2] (number of screens against the bait protein in which the peptide has been found) of 3. The Specificity in the assay on USP8 MIT domain [2] (proportion for the current bait of the total NGS read counts of the peptide for all baits screened with this library) was 1.
